Measured values published in patent US20260158017A1, “KIF18A INHIBITOR” (WIGEN BIOMEDICINE TECHNOLOGY (SHANGHAI) CO., LTD., priority 2021, published 2026).

Target: T1, Recombinant human KIF18A (1-467His-tagged) protein (Homo sapiens, UniProt Q8NI77)
T1 construct: Recombinant human KIF18A (1-467His-tagged) protein; His; made in house
Assay: KIF18A enzyme assay (microtubule-stimulated ATPase activity, ADP-Glo)
Type: biochemical
Settings: 30 nM KIF18A, 75 μM ATP, 30 μg/mL pig microtubules; read-out: Inhibitory activity against KIF18A IC50
Experimental: In Vitro Assay of the Compounds of the Present Invention for Inhibiting Enzymatic Activity of KIF18A
KIF18A enzyme assay: The enzymatic activity of KIF18A after treatment with the compounds was measured by an assay of microtubule-stimulated ATPase activity. ADP generated from the ATPase reaction was measured in this assay. The compounds were serially diluted 2-fold in DMSO over a range of 22 concentration points. […] Concentrations of KIF18A protein, microtubules, and ATP in the reaction were optimized for a standardized homogenous enzyme assay using an ADP-Glo kinase/ATPase assay kit. A reaction buffer [(15 mM Tris, pH 7.5), 10 mM MgCl2, 0.01% PluronicF-68, 1 μM paclitaxel, and 30 μg/mL pig microtubules] was prepared. […] The resulting reaction mixture was incubated at room temperature for another 15 min. 5 μL of ADP-Glo reagent and 2.5 μL of the reaction mixture were mixed and the resulting mixture was incubated at room temperature for 40 min. 10 μL of ADP-Glo detection reagent was added and the mixture was incubated at room temperature for 40 min. Luminescence was read using a microplate reader and compared with that of the DMSO group, and then the inhibition percentages and IC50 values of the compounds were calculated.

T1 sequence (Q8NI77 1-467): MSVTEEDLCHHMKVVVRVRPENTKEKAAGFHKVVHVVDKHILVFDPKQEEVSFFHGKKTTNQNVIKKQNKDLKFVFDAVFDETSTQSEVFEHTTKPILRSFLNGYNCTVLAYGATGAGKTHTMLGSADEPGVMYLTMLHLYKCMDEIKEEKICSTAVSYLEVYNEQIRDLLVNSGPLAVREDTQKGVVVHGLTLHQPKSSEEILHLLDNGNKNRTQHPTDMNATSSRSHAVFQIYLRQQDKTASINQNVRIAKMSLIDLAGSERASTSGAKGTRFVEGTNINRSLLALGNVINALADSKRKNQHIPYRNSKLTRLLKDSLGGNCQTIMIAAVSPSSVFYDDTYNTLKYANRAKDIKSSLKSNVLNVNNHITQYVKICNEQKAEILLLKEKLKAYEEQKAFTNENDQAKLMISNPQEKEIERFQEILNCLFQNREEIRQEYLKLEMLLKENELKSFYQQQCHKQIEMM
T1 sequence (P02550 whole entry partner): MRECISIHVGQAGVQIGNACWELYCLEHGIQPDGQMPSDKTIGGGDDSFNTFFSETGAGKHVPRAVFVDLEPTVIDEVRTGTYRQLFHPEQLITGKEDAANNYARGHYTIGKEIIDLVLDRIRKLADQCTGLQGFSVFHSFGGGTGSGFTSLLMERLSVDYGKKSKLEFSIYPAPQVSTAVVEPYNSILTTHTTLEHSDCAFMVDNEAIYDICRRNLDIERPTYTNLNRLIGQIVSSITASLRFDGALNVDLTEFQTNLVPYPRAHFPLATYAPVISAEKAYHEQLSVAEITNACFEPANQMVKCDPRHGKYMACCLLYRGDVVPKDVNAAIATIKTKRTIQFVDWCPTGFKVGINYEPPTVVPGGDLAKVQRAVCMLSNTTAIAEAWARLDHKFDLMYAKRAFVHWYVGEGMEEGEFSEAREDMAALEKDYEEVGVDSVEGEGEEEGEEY
T1 sequence (P02554 whole entry partner): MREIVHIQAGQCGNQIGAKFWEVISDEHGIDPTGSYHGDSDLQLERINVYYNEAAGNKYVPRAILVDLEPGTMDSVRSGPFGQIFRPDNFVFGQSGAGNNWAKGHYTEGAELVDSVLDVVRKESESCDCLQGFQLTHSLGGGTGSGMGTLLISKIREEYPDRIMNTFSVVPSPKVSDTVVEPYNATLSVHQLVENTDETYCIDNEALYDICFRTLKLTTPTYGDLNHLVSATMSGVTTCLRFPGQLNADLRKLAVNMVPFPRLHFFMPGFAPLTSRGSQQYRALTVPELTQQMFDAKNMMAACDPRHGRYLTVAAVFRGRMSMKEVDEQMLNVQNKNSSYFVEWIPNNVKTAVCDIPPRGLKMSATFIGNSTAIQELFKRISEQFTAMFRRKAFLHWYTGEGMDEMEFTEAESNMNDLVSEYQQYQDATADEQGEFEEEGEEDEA

| Compound | IC50 |
| --- | --- |
| C[C@@H]1CN(c2cc(NC(=O)c3ccc(NS(=O)(=O)[C@@H](C)CO)cc3N3CCC4(CC3)CC4)ccc2[N+](=O)[O-])CCO1 [Compound 15] | ≤ 100 nM |
| C[C@H](CO)S(=O)(=O)Nc1cc(N2CCC3(CC2)CC3)c(C(=O)Nc2ccc([N+](=O)[O-])c(N3CCC(F)(F)CC3)c2)cn1 [Compound 110] | ≤ 100 nM |
| C[C@H](CO)S(=O)(=O)Nc1ccc(C(=O)Nc2ccc(OCF)c(N3CCC(F)(F)CC3)c2)c(N2CCC3(CC2)CC3)c1 [Compound 398] | ≤ 100 nM |
| CSc1ccc(NC(=O)c2ccc(NS(=O)(=O)[C@@H](C)CO)cc2N2CCC3(CC2)CC3)cc1N1CCO[C@H](C)C1 [Compound 591] | ≤ 100 nM |
| O=C(Nc1ccc(OCF)c(N2CC(F)(F)C2)n1)c1ccc(NS(=O)(=O)CCO)cc1N1CCC2(CC1)CC2 [Compound 420] | ≤ 100 nM |
| O=C(Nc1cnc(S(=O)(=O)NCCO)cc1N1CCC2(CC1)CC2)c1ccc([N+](=O)[O-])c(N2CC3CC3C2)n1 (stereo not drawn) [Compound 250] | 100 to 500 nM |
| COc1ccc(C(=O)Nc2cnc(NS(=O)(=O)CCO)cc2N2CCC3(CC2)CC3)nc1N1CCC(F)CC1 [Compound 361] | ≤ 100 nM |
| CSc1ccc(NC(=O)c2cnc(NS(=O)(=O)[C@H](C)CO)cc2N2CCC3(CC2)CC3)nc1N1CCO[C@H](C)C1 [Compound 640] | ≤ 100 nM |
| C[C@@H]1CN(c2nc(NC(=O)c3cnc(S(=O)(=O)N[C@@H](C)CO)cc3N3CCC4(CC3)CC4)ccc2[N+](=O)[O-])CCO1 [Compound 159] | ≤ 100 nM |
| C[C@@H]1CN(c2nc(C(=O)Nc3ccc(S(=O)(=O)NCCO)cc3N3CCC4(CC3)CC4)ccc2[N+](=O)[O-])CCO1 [Compound 178] | 100 to 500 nM |
| O=C(Nc1ccc(NS(=O)(=O)CCO)cc1N1CCC2(CC1)CC2)c1ccc([N+](=O)[O-])c(N2CCC3(CC3)C2)c1 [Compound 38] | ≤ 100 nM |
| O=C(Nc1ccc([N+](=O)[O-])c(N2CCOCC2)c1)c1ccc(NS(=O)(=O)CCO)cc1N1CCC2(CC1)CC2 [Compound 12] | ≤ 100 nM |
| COc1ccc(NC(=O)c2cnc(NS(=O)(=O)[C@H](C)CO)cc2N2CCC3(CC2)CC3)nc1N1CCC(F)(F)CC1 [Compound 302] | ≤ 100 nM |
| C[C@@H]1CN(c2cc(C(=O)Nc3ccc(NS(=O)(=O)CCO)cc3N3CCC4(CC3)CC4)ccc2[N+](=O)[O-])CCO1 [Compound 34] | ≤ 100 nM |
| C[C@@H](CO)S(=O)(=O)Nc1ccc(C(=O)Nc2ccc([N+](=O)[O-])c(N3CCC(F)(F)CC3)n2)c(N2CCC3(CC2)CC3)c1 [Compound 77] | ≤ 100 nM |
| CC(C)(CO)Nc1nc(NC(=O)c2ccc(S(=O)(=O)NCCO)cc2N2CCC3(CC2)CC3)ccc1OCF [Compound 443] | ≤ 100 nM |
| O=C(Nc1ccc(NS(=O)(=O)CCO)cc1N1CCC2(CC1)CC2)c1ccc([N+](=O)[O-])c(OCCC(F)(F)F)n1 [Compound 165] | ≤ 100 nM |
| C[C@@H]1CN(c2nc(NC(=O)c3ccc(S(=O)(=O)N[C@@H](C)CO)cc3N3CCC4(CC3)CC4)ccc2OCF)CCO1 [Compound 447] | ≤ 100 nM |
| O=C(Nc1ccc(OCF)c(N2CCC3(CC3)C2)c1)c1cnc(NS(=O)(=O)CCO)cc1N1CCC2(CC1)CC2 [Compound 454] | ≤ 100 nM |
| C[C@H](CO)NS(=O)(=O)c1ccc(NC(=O)c2ccc([N+](=O)[O-])c(N3CCO[C@H](C)C3)c2)c(N2CCC3(CC2)CC3)c1 [Compound 64] | 100 to 500 nM |
| COc1ccc(NC(=O)c2cnc(NS(=O)(=O)CCO)cc2N2CCC3(CC2)CC3)nc1N1CCO[C@@H](C)C1 [Compound 291] | ≤ 100 nM |
| C[C@H]1CN(c2cc(NC(=O)c3cnc(S(=O)(=O)NCCO)cc3N3CCC4(CC3)CC4)ccc2[N+](=O)[O-])CCO1 [Compound 115] | ≤ 100 nM |
| COc1ccc(C(=O)Nc2cnc(S(=O)(=O)NCCO)cc2N2CCC3(CC2)CC3)nc1N1CCC(C)(F)C1 (stereo not drawn) [Compound 376] | ≤ 100 nM |

| Compound | IC50 |
| --- | --- |
| CC1(F)CCN(c2cc(NC(=O)c3cnc(S(=O)(=O)NCCO)cc3N3CCC4(CC3)CC4)ccc2OCF)C1 (stereo not drawn) [Compound 472] | ≤ 100 nM |
| C[C@H](CO)S(=O)(=O)Nc1ccc(C(=O)Nc2ccc([N+](=O)[O-])c(N3CCC(F)(F)CC3)c2)c(N2CCC3(CC2)CC3)c1 [Compound 14] | ≤ 100 nM |
| O=C(Nc1cnc(S(=O)(=O)NCCO)cc1N1CCC2(CC1)CC2)c1ccc([N+](=O)[O-])c(N2CCOCC2)n1 [Compound 252] | 100 to 500 nM |
| CSc1ccc(NC(=O)c2ccc(NS(=O)(=O)CCO)cc2N2CCC3(CC2)CC3)nc1N1CCOCC1 [Compound 604] | ≤ 100 nM |
| O=C(Nc1cnc(NS(=O)(=O)CCO)cc1N1CCC2(CC1)CC2)c1ccc([N+](=O)[O-])c(OCCC(F)(F)F)n1 [Compound 229] | ≤ 100 nM |
| O=C(Nc1ccc(S(=O)(=O)NCCO)cc1N1CCC2(CC1)CC2)c1ccc([N+](=O)[O-])c(N2CC3CC3C2)c1 (stereo not drawn) [Compound 58] | 100 to 500 nM |
| C[C@@H]1CN(c2nc(NC(=O)c3cnc(NS(=O)(=O)[C@@H](C)CO)cc3N3CCC4(CC3)CC4)ccc2[N+](=O)[O-])CCO1 [Compound 143] | ≤ 100 nM |
| C[C@@H]1CN(c2cc(NC(=O)c3ccc(S(=O)(=O)N[C@@H](C)CO)cc3N3CCC4(CC3)CC4)ccc2[N+](=O)[O-])CCO1 [Compound 31] | ≤ 100 nM |
| O=C(Nc1ccc(S(=O)(=O)NCCO)cc1N1CCC2(CC1)CC2)c1ccc(OCF)c(N2CCC(F)(F)CC2)n1 [Compound 561] | 100 to 500 nM |
| C[C@H]1CN(c2nc(NC(=O)c3cnc(NS(=O)(=O)CCO)cc3N3CCC4(CC3)CC4)ccc2[N+](=O)[O-])CCO1 [Compound 131] | ≤ 100 nM |
| C[C@@H]1CN(c2cc(C(=O)Nc3ccc(NS(=O)(=O)[C@H](C)CO)cc3N3CCC4(CC3)CC4)ccc2OCF)CCO1 [Compound 528] | ≤ 100 nM |
| O=C(Nc1ccc(OCF)c(N2CC3CC3C2)c1)c1ccc(S(=O)(=O)NCCO)cc1N1CCC2(CC1)CC2 (stereo not drawn) [Compound 410] | ≤ 100 nM |
| C[C@@H]1CN(c2nc(C(=O)Nc3ccc(S(=O)(=O)N[C@@H](C)CO)cc3N3CCC4(CC3)CC4)ccc2OCF)CCO1 [Compound 575] | 100 to 500 nM |
| COc1ccc(NC(=O)c2ccc(S(=O)(=O)NCCO)cc2N2CCC3(CC2)CC3)nc1N1CCOCC1 [Compound 284] | ≤ 100 nM |
| O=C(Nc1ccc(OCF)c(OC2CCC2)n1)c1ccc(S(=O)(=O)NCCO)cc1N1CCC2(CC1)CC2 [Compound 439] | ≤ 100 nM |
| C[C@H]1CN(c2cc(NC(=O)c3ccc(NS(=O)(=O)CCO)cc3N3CCC4(CC3)CC4)ccc2OCF)CCO1 [Compound 387] | ≤ 100 nM |
| O=C(Nc1ccc(S(=O)(=O)NCCO)cc1N1CCC2(CC1)CC2)c1ccc([N+](=O)[O-])c(OCCC(F)(F)F)c1 [Compound 53] | 100 to 500 nM |
| O=C(Nc1ccc(NS(=O)(=O)CCO)cc1N1CCC2(CC1)CC2)c1ccc([N+](=O)[O-])c(N2CC3CC3C2)n1 (stereo not drawn) [Compound 170] | ≤ 100 nM |
| O=C(Nc1ccc(OCF)c(N2CCOCC2)n1)c1cnc(S(=O)(=O)NCCO)cc1N1CCC2(CC1)CC2 [Compound 508] | ≤ 100 nM |
| CC(C)(CO)Nc1nc(C(=O)Nc2ccc(S(=O)(=O)NCCO)cc2N2CCC3(CC2)CC3)ccc1[N+](=O)[O-] [Compound 187] | 100 to 500 nM |
| O=C(Nc1ccc(NS(=O)(=O)CCO)cc1N1CCC2(CC1)CC2)c1ccc([N+](=O)[O-])c(N2CCC(F)CC2)n1 [Compound 169] | ≤ 100 nM |
| O=C(Nc1ccc(OCF)c(OC2CCC2)c1)c1ccc(S(=O)(=O)NCCO)cc1N1CCC2(CC1)CC2 [Compound 407] | ≤ 100 nM |
